± gives the expanded uncertainty stated by the source.

In the NIST ThermoML archive (doi:10.1016/j.jct.2012.01.013) one finds viscosity and mass density data, which are given here for six compounds.

The conditions of this series: 101.33 kPa, Liquid; for viscosity: Falling or rolling sphere viscometry; for mass density: Vibrating tube method.

With `CCCO` [propan-1-ol], the viscosity (293.15 K) is recorded as 2.206 ± 0.062 mPa·s; the viscosity (298.15 K) was 1.976 ± 0.062 mPa·s; the viscosity (303.15 K) was 1.737 ± 0.061 mPa·s; the viscosity (308.15 K) came to 1.548 ± 0.061 mPa·s; the viscosity (313.15 K) stood at 1.383 ± 0.061 mPa·s. The mass density was 803.58 ± 0.15 kg/m3 (293.15 K); 799.61 ± 0.15 kg/m3 (298.15 K); 795.6 ± 0.15 kg/m3 (303.15 K); 791.51 ± 0.15 kg/m3 (308.15 K); 787.39 ± 0.15 kg/m3 (313.15 K).

As to `CO` [methanol], the viscosity by setting is: (293.15 K) 0.588 ± 0.06 mPa·s; (298.15 K) 0.551 ± 0.06 mPa·s; (303.15 K) 0.517 ± 0.06 mPa·s; (308.15 K) 0.486 ± 0.06 mPa·s; (313.15 K) 0.46 ± 0.06 mPa·s. The mass density by setting is: (293.15 K) 791.22 ± 0.15 kg/m3; (298.15 K) 786.52 ± 0.15 kg/m3; (303.15 K) 781.81 ± 0.15 kg/m3; (308.15 K) 777.06 ± 0.15 kg/m3; (313.15 K) 772.27 ± 0.15 kg/m3.

On to `CCO` [ethanol], for which the mass density is 789.48 ± 0.15 kg/m3 (293.15 K); 785.41 ± 0.15 kg/m3 (298.15 K); 780.65 ± 0.15 kg/m3 (303.15 K); 776.31 ± 0.15 kg/m3 (308.15 K); 772.08 ± 0.15 kg/m3 (313.15 K).

Regarding `O` [water], the viscosity (293.15 K) is 1.002 ± 0.06 mPa·s; the viscosity (298.15 K) turned out to be 0.891 ± 0.06 mPa·s; the viscosity (303.15 K) stood at 0.798 ± 0.06 mPa·s; the viscosity (308.15 K) was found to be 0.718 ± 0.06 mPa·s; the viscosity (313.15 K) came to 0.652 ± 0.06 mPa·s.

With `CC(=O)[O-].Cn1cc[nH+]c1` [1-methylimidazolium acetate], the viscosity runs as follows: (293.15 K) 8.196 ± 0.094 mPa·s; (298.15 K) 6.926 ± 0.085 mPa·s; (303.15 K) 5.913 ± 0.079 mPa·s; (308.15 K) 5.069 ± 0.075 mPa·s; (313.15 K) 4.395 ± 0.071 mPa·s. Besides, the mass density runs as follows: (293.15 K) 1079.75 ± 0.29 kg/m3; (298.15 K) 1075.33 ± 0.29 kg/m3; (303.15 K) 1070.89 ± 0.29 kg/m3; (308.15 K) 1066.45 ± 0.28 kg/m3; (313.15 K) 1062 ± 0.28 kg/m3.

Turning to `CCCCO` [butan-1-ol], the viscosity reads like this: (293.15 K) 2.941 ± 0.064 mPa·s; (298.15 K) 2.573 ± 0.063 mPa·s; (303.15 K) 2.264 ± 0.062 mPa·s; (308.15 K) 2.002 ± 0.062 mPa·s; (313.15 K) 1.788 ± 0.061 mPa·s. The mass density (293.15 K) was found to be 809.77 ± 0.14 kg/m3; the mass density (298.15 K) is on record as 805.98 ± 0.14 kg/m3; the mass density (303.15 K) was 802.08 ± 0.15 kg/m3; the mass density (308.15 K) is given as 798.19 ± 0.15 kg/m3; the mass density (313.15 K) came to 794.36 ± 0.15 kg/m3.
